Laboratory results taken from PubChem BioAssay (NCI).
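Values below derive from 48-hour exposures of cells grown in 96-well plates, with endpoints linearly interpolated between the two concentrations bracketing the appropriate inhibition level. The concentration for 50% growth inhibition is given as GI50. TGI: total growth inhibition.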

Experiments:
Test in all cases: NCI anticancer screen, dose series, 48 h
PC-3 prostate = system: PC-3 prostate
HS 578T breast = system: HS 578T breast
COLO 205 colon = system: COLO 205 colon
SF-268 CNS = system: SF-268 CNS
SN12C renal = system: SN12C renal
SNB-19 CNS = system: SNB-19 CNS
MOLT-4 leukemia = system: MOLT-4 leukemia
HT29 colon = system: HT29 colon
HOP-62 NSCLC = system: HOP-62 NSCLC
NCI-H460 lung = system: NCI-H460 lung
K-562 leukemia = system: K-562 leukemia
BT-549 breast = system: BT-549 breast
HCC-2998 colon = system: HCC-2998 colon
RXF 393 renal = system: RXF 393 renal
M14 melanoma = system: M14 melanoma
SF-539 CNS = system: SF-539 CNS
TK-10 renal = system: TK-10 renal
SK-MEL-5 melanoma = system: SK-MEL-5 melanoma
SF-295 CNS = system: SF-295 CNS
SR leukemia = system: SR leukemia
A549 NSCLC = system: A549 NSCLC
KM12 colon = system: KM12 colon
HL-60(TB) leukemia = system: HL-60(TB) leukemia
NCI-H522 lung = system: NCI-H522 lung
CCRF-CEM leukemia = system: CCRF-CEM leukemia
U251 CNS = system: U251 CNS
LOX IMVI melanoma = system: LOX IMVI melanoma
NCI-H226 lung = system: NCI-H226 lung
T-47D breast = system: T-47D breast
OVCAR-3 ovarian = system: OVCAR-3 ovarian
MDA-MB-468 breast = system: MDA-MB-468 breast
RPMI-8226 leukemia = system: RPMI-8226 leukemia
MCF7 breast = system: MCF7 breast
UACC-62 melanoma = system: UACC-62 melanoma
IGROV1 ovarian = system: IGROV1 ovarian
CAKI-1 renal = system: CAKI-1 renal
HCT-15 colon = system: HCT-15 colon
HCT-116 colon = system: HCT-116 colon
SW-620 colon = system: SW-620 colon
UACC-257 melanoma = system: UACC-257 melanoma
OVCAR-5 ovarian = system: OVCAR-5 ovarian
DU-145 prostate = system: DU-145 prostate
EKVX NSCLC = system: EKVX NSCLC
NCI/ADR-RES ovarian = system: NCI/ADR-RES ovarian
A498 renal = system: A498 renal
ACHN renal = system: ACHN renal
SK-OV-3 ovarian = system: SK-OV-3 ovarian
NCI-H23 lung = system: NCI-H23 lung
MALME-3M melanoma = system: MALME-3M melanoma
OVCAR-8 ovarian = system: OVCAR-8 ovarian
OVCAR-4 ovarian = system: OVCAR-4 ovarian
786-0 renal = system: 786-0 renal
MDA-MB-435 = system: MDA-MB-435
SK-MEL-28 melanoma = system: SK-MEL-28 melanoma
HOP-92 NSCLC = system: HOP-92 NSCLC

## Cc1nn(-c2ccccc2)c2nc(C)n(CC(=O)N/N=C/c3ccccc3O)c(=O)c12
PC-3 prostate
  GI50: 4.47 µM
  TGI: 29.3 µM
HS 578T breast
  GI50: 9.4 µM
  TGI: 70.9 µM
COLO 205 colon
  GI50: 2.83 µM
  TGI: 14.9 µM
SF-268 CNS
  GI50: 3.31 µM
  TGI: > 100 µM
SN12C renal
  GI50: 5.64 µM
  TGI: 46 µM
SNB-19 CNS
  GI50: 7.44 µM
  TGI: 39.2 µM
MOLT-4 leukemia
  GI50: 2.59 µM
  TGI: 10.7 µM
HT29 colon
  GI50: 4.91 µM
  TGI: 20.5 µM
HOP-62 NSCLC
  GI50: 4.63 µM
  TGI: 21.4 µM
NCI-H460 lung
  GI50: 3.59 µM
  TGI: 16.2 µM
K-562 leukemia
  GI50: 3.48 µM
  TGI: > 100 µM
BT-549 breast
  GI50: 3.74 µM
  TGI: 25.4 µM
HCC-2998 colon
  GI50: 4.29 µM
  TGI: 27.6 µM
RXF 393 renal
  GI50: 4.92 µM
  TGI: 24.1 µM
M14 melanoma
  GI50: 2.89 µM
  TGI: 15.6 µM
SF-539 CNS
  GI50: 4.46 µM
  TGI: 26.9 µM
TK-10 renal
  GI50: 7.5 µM
  TGI: 45.4 µM
SK-MEL-5 melanoma
  GI50: 3.75 µM
  TGI: 19.4 µM
SF-295 CNS
  GI50: 4.79 µM
  TGI: 22.6 µM
SR leukemia
  GI50: 2.43 µM
  TGI: 10.8 µM
A549 NSCLC
  GI50: 6.12 µM
  TGI: 21.1 µM
KM12 colon
  GI50: 4.12 µM
  TGI: > 100 µM
HL-60(TB) leukemia
  GI50: 2.13 µM
  TGI: 7.52 µM
NCI-H522 lung
  GI50: 3.4 µM
  TGI: 22.2 µM
CCRF-CEM leukemia
  GI50: 2.09 µM
  TGI: 16.8 µM
U251 CNS
  GI50: 3.93 µM
  TGI: 19.6 µM
LOX IMVI melanoma
  GI50: 1.78 µM
  TGI: 14 µM
NCI-H226 lung
  GI50: 12.9 µM
  TGI: 38.9 µM
T-47D breast
  GI50: 4.41 µM
  TGI: 36.9 µM
OVCAR-3 ovarian
  GI50: 2.66 µM
  TGI: 28 µM
MDA-MB-468 breast
  GI50: 3.36 µM
  TGI: 19.4 µM
RPMI-8226 leukemia
  GI50: 5.53 µM
  TGI: 48.4 µM
MCF7 breast
  GI50: 3.62 µM
  TGI: 31.1 µM
UACC-62 melanoma
  GI50: 3.02 µM
  TGI: 12.5 µM
IGROV1 ovarian
  GI50: 6.36 µM
  TGI: 66.3 µM
CAKI-1 renal
  GI50: 4.93 µM
  TGI: 26.2 µM
HCT-15 colon
  GI50: 2.26 µM
  TGI: > 100 µM
HCT-116 colon
  GI50: 4.85 µM
  TGI: 18.9 µM
SW-620 colon
  GI50: 4.22 µM
  TGI: > 100 µM
UACC-257 melanoma
  GI50: 5.46 µM
  TGI: 31.3 µM
OVCAR-5 ovarian
  GI50: 8.89 µM
  TGI: 51.4 µM
DU-145 prostate
  GI50: 6.32 µM
  TGI: > 100 µM
EKVX NSCLC
  GI50: 2.55 µM
  TGI: 17 µM
NCI/ADR-RES ovarian
  GI50: 3.79 µM
  TGI: 17.9 µM
A498 renal
  GI50: 19.3 µM
  TGI: 83.1 µM
ACHN renal
  GI50: 2.62 µM
  TGI: 14.7 µM
SK-OV-3 ovarian
  GI50: 6.5 µM
  TGI: 28.5 µM
NCI-H23 lung
  GI50: 4.62 µM
  TGI: 22.4 µM
MALME-3M melanoma
  GI50: 4.33 µM
  TGI: 30 µM
OVCAR-8 ovarian
  GI50: 3.86 µM
  TGI: 21.1 µM
OVCAR-4 ovarian
  GI50: 3.18 µM
  TGI: 42.8 µM
786-0 renal
  GI50: 6.16 µM
  TGI: 31.8 µM
MDA-MB-435
  GI50: 8.63 µM
  TGI: > 100 µM
SK-MEL-28 melanoma
  GI50: 4.58 µM
  TGI: 33.7 µM
HOP-92 NSCLC
  GI50: 3.29 µM
  TGI: 20.6 µM
